Where a name gives a salt, the structure may show the parent alone. Read-outs that look alike come from different tables or passages of the source.
Target: T1, His6-AspH315–758 (human aspartate/asparagine-β-hydroxylase, AspH) (Homo sapiens, UniProt Q12797)
T1 construct: N-Terminally His6-tagged human AspH315–758 (His6-AspH315–758) was produced in E. coli BL21 (DE3) cells; made in house; host or cells: E. coli BL21 (DE3), pET-28a(+) vector
T1 sequence (Q12797 315-758): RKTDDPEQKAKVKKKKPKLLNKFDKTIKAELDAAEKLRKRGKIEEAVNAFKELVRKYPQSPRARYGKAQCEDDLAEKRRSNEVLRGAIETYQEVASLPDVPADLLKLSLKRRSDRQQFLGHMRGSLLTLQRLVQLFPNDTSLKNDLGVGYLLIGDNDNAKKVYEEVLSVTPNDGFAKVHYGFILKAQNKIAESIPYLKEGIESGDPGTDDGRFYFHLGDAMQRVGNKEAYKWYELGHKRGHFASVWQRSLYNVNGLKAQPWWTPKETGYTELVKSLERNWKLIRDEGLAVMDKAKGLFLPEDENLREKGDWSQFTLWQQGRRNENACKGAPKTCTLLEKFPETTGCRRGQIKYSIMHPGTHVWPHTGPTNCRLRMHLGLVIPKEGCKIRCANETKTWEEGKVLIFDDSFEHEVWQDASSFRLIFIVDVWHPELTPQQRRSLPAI
Assay: SPE-MS AspH inhibition assay (LOPAC screen at fixed 20 μM and IC50 dose-response), hydroxylation of cyclic peptide hFX-CP101–119
Format: biochemical
Details: for Plate 5 (% inhibition) / Plate 5 (% conversion): plate 5 (Pfitzer), test compounds at fixed 20 μM; for Plate 5 (% conversion): mean conversion DMSO 32.88; for IC50: 50 nM His6-AspH315–758, 1.0 μM hFX-CP101–119, 3 μM 2OG, 2 μM Fe(II), 50 mM HEPES pH 7.5, 20 °C, mean ± SD, n = 2 (2,4-PDCA n = 10), read-out: IC50

[1] = LOPAC compound at 20uM, plate 2, conversion of substrate peptide
[2] = LOPAC compound at 20uM, plate 2, normalised to DMSO and 2,4-PDCA controls
[3] = LOPAC compound at fixed 20 uM, plate 1, normalised to DMSO and 2,4-PDCA controls
[4] = LOPAC compound at fixed 20 uM, substrate conversion, plate 1
[5] = LOPAC Plate 4, compound at 20 uM
[6] = LOPAC Plate 4, compound at 20 uM, substrate conversion
[7] = LOPAC Plate 4, compound at 20 uM, read-out: % inhibition
[8] = LOPAC compound at 20uM, conversion of substrate peptide
[9] = read-out: Plate 2 (% inhibition)

## Nc1ncnc2c1c(-c1ccc(Oc3ccccc3)cc1)cn2C1CCCC1
[1]
  Plate 2 (% conversion): 45.34%
[2]
  Plate 2 (% inhibition): -28.02%

## CC(Cc1ccc(O)c(O)c1)C(C)Cc1ccc(O)c(O)c1 (stereo not shown) [Nordihydroguaiaretic acid, reference compound]
AspH activity, fixed compound concentration 20 μM, initial LOPAC screen, 0.5%v/v DMSO
  Inhibition at 20 µM [%]: 98.9%

## O=[N+]([O-])c1cccc2c(Br)n[nH]c12 [3-Bromo-7-nitroindazole]
[3]
  Plate 1 (% inhibition): 1.81%
[4]
  Plate 1 (% conversion): 35.26%

## C#C[C@]1(O)CC[C@H]2[C@@H]3CCC4=Cc5oncc5C[C@]4(C)[C@H]3CC[C@@]21C [Danazol]
[1]
  Plate 2 (% conversion): 39.67%
LOPAC compound at 20uM, plate 2, normalised to DMSO and 2,4-PDCA controls, read-out: Plate 2 (% inhibition)
  inhibition at 20 µM: -11.1%

## c1cnc2cc3c(cc2n1)[C@@H]1CNC[C@H]3C1 [Varenicline]
  Plate 5 (% inhibition): 75.86%
  Plate 5 (% conversion): 10.50%

## Cc1[nH]c(/C=C2\C(=O)Nc3ccc(S(=O)(=O)Cc4c(Cl)cccc4Cl)cc32)c(C)c1C(=O)N1CCC[C@@H]1CN1CCCC1 [PHA-665752]
  Plate 5 (% inhibition): -100.36%
  Plate 5 (% conversion): 70.47%

## CC(C)[C@@H]1CC[C@@H](C)C[C@@H]1P(=O)(c1ccccc1)c1ccccc1 [DPO-1]
[1]
  Plate 2 (% conversion): 40.63%
[2]
  Plate 2 (% inhibition): -13.96%

## O=C(Nc1nc2ccccc2n1CCN1CCOCC1)c1cccc([N+](=O)[O-])c1 [IRAK-1/4 Inhibitor I]
[5]
  % inhibition: -1.55%
[6]
  % conversion: 37.00%

## CN(C)CCCN1c2ccccc2Sc2ccccc21 [Promazine hydrochloride]
[6]
  % conversion: 39.62%
[7]
  inhibition at 20 µM: -9.23%

## COc1cc2ncnc(Nc3cccc(Cl)c3)c2cc1OC [Tyrphostin AG 1478]
[6]
  % conversion: 38.87%
[7]
  inhibition at 20 µM: -7.04%

## KRM-III
[1]
  Plate 2 (% conversion): 30.60%
[2]
  Plate 2 (% inhibition): 15.99%

## CC(C)COCC(CN(Cc1ccccc1)c1ccccc1)N1CCCC1 (stereo not shown) [Bepridil hydrochloride]
[3]
  Plate 1 (% inhibition): 94.47%
[4]
  Plate 1 (% conversion): 4.14%

## S=C([S-])OC1CC2CC1C1CCCC21.[K+] [D-609 potassium]
  % conversion: 29.00%

## NC(=O)NO [Hydroxyurea]
[1]
  Plate 2 (% conversion): 37.94%
[2]
  Plate 2 (% inhibition): -5.92%

## COc1ccc2c(c1)c(CC(=O)O)c(C)n2Cc1ccc(Cl)cc1
[3]
  Plate 1 (% inhibition): 5.27%
[4]
  Plate 1 (% conversion): 34.10%

## N=C(NCCC[C@H](N)C(=O)O)N[N+](=O)[O-] [NG-Nitro-L-arginine]
[8]
  Plate 3 (% conversion): 40.79%

## CC(C)[C@H]1CN[C@H](C(=O)O)[C@H]1CC(=O)O [Dihydrokainic acid]
  Plate 2 (% conversion): 34.38%
20 µM
  Plate 2 (% inhibition): 4.72%

## CN(C)CCC(c1ccc(Cl)cc1)c1ccccn1.O=C(O)/C=C\C(=O)O (racemic) [(±)-Chlorpheniramine maleate]
[3]
  Plate 1 (% inhibition): -6.31%
[4]
  Plate 1 (% conversion): 37.99%

## O=[N+]([O-])c1ccc2c(c1)S(=O)(=O)C=C2 [Stattic]
  % conversion: 34.71%
20 µM
  % inhibition: 5.15%

## N[C@@H](CC(=O)O)C(=O)O [L-Aspartic acid]
[3]
  Plate 1 (% inhibition): -3.19%
[4]
  Plate 1 (% conversion): 36.94%

## CN(C)c1ccccc1CN1CCCN(Cc2ccccc2N(C)C)C1c1ccncc1 [GANT61]
[5]
  % inhibition: -13.34%
[6]
  % conversion: 41.02%

## CN(CC[C@@H](Oc1ccc(C(F)(F)F)cc1)c1ccccc1)CC(=O)[O-].[Li+] [Org 24598 lithium salt]
  Plate 1 (% conversion): 40.79%
  Plate 1 (% inhibition): -14.64%

## Cl.NC1(C(=O)O)CCCCC1
[3]
  Plate 1 (% inhibition): 1.04%
[4]
  Plate 1 (% conversion): 35.52%

## CN(C)C(=O)Oc1ccc[n+](C)c1 [Pyridostigmine bromide]
  % conversion: 37.84%

## C=CC[N+](C)(C)c1ccc(CCC(=O)CCc2ccc([N+](C)(C)CC=C)cc2)cc1.[Br-].[Br-] [BW 284c51]
  Plate 1 (% conversion): 38.38%
  Plate 1 (% inhibition): -7.47%

## C[N+]1(C)[C@@H]2CC[C@H]1C[C@@H](OC(=O)C(CO)c1ccccc1)C2 (stereo partly shown) [Atropine methyl bromide]
[3]
  Plate 1 (% inhibition): -14.40%
[4]
  Plate 1 (% conversion): 40.71%

## N=C(N)c1ccccc1 [Benzamidine hydrochloride]
[3]
  Plate 1 (% inhibition): -1.42%
[4]
  Plate 1 (% conversion): 36.35%

## CN1C(=O)CCS(=O)(=O)C1c1ccc(Cl)cc1 (stereo not shown) [Chlormezanone]
  Plate 2 (% conversion): 39.39%
[9]
  inhibition at 20 µM: -10.3%

## COc1cc2nc(N3CCN(C(=O)c4ccco4)CC3)nc(N)c2cc1OC [Prazosin hydrochloride]
[6]
  % conversion: 34.08%

## O=C(O)/C=C/c1ccc(O)c(O)c1 [caffeic acid, reference compound]
  IC50: 240 ± 80 nM
[4]
  Plate 1 (% conversion): 3.16%

## [N-]=[N+]=Nc1ccc(C(=O)CSC[C@H](NC(=O)CC[C@H](N)C(=O)O)C(=O)NCC(=O)O)cc1 [S-(p-Azidophenacyl)glutathione]
[3]
  Plate 1 (% inhibition): -2.24%
[4]
  Plate 1 (% conversion): 36.62%

## O=c1c(O)c(-c2ccc(O)c(O)c2)oc2cc(O)cc(O)c12 [quercetin, reference compound]
  IC50: 240 ± 10 nM
AspH activity, fixed compound concentration 20 μM, initial LOPAC screen, 0.5%v/v DMSO, read-out: Inhibition at 20 µM [%]
  inhibition at 20 µM: 97.8%
[6]
  % conversion: 3.10%
[7]
  inhibition at 20 µM: 97.8%

## COc1cc2nc(N(C)CCCNC(=O)C3CCCO3)nc(N)c2cc1OC (stereo not shown) [Alfuzosin hydrochloride]
[3]
  Plate 1 (% inhibition): -12.38%
[4]
  Plate 1 (% conversion): 40.03%

## N[C@@H]1CONC1=O (racemic) [DL-Cycloserine]
[3]
  Plate 1 (% inhibition): -17.16%
[4]
  Plate 1 (% conversion): 41.64%

## C1COC(NC(C2CC2)C2CC2)=N1 [Rilmenidine hemifumarate]
[6]
  % conversion: 24.79%

## CC(=O)C(C)=NO [2,3-Butanedione monoxime]
[3]
  Plate 1 (% inhibition): -3.18%
[4]
  Plate 1 (% conversion): 36.94%

## O=C(O)/C=C\C(=O)O.O=[N+]([O-])c1ccc2nc(N3CCNCC3)ccc2c1 [Quipazine, 6-nitro-, maleate]
[6]
  % conversion: 31.15%

## C/C=C(/C)C(=O)O[C@H]1C(C)=C2[C@H]([C@@H]1OC(=O)CCCCCCC)[C@@](C)(OC(C)=O)C[C@H](OC(=O)CCC)[C@@]1(O)[C@H]2OC(=O)[C@@]1(C)O [Thapsigargin]
  % conversion: 31.20%

## CN1C2CCCC1CC(NC(=O)c1nn(C)c3ccccc13)C2 (stereo not shown) [Granisetron hydrochloride]
[6]
  % conversion: 34.30%

## CC(N)(Cc1ccc(O)c(O)c1)C(=O)O (racemic)
[8]
  Plate 3 (% conversion): 9.94%

## CCCOc1ccccc1-c1nc2nn[nH]c2c(=O)[nH]1 [Zaprinast]
[6]
  % conversion: 35.45%
[7]
  inhibition at 20 µM: 2.99%

## CO/N=C(\C(=O)N[C@@H]1C(=O)N2C(C(=O)O)=C(COC(C)=O)CS[C@H]12)c1csc(N)n1 [Cefotaxime sodium]
[3]
  Plate 1 (% inhibition): 3.71%
[4]
  Plate 1 (% conversion): 34.63%

## Cc1ccc(S(=O)(=O)N[C@@H](CCCCN)C(=O)CCl)cc1.Cl
  % conversion: 33.91%

## COc1cc(N)c(Cl)cc1C(=O)NC[C@@H]1CCN2CCC[C@@H]12 [SC-53116]
  Plate 5 (% inhibition): 9.86%
  Plate 5 (% conversion): 32.96%

## N.N.N.N.N.N.N.N.N.N.N.N.N.N.[Cl-].[Cl-].[Cl-].[Cl-].[Cl-].[Cl-].[O-2].[O-2].[Ru+3].[Ru+3].[Ru+4] [Ruthenium red]
[5]
  % inhibition: -14.56%
[6]
  % conversion: 41.44%

## O=C(Nc1cccnc1)N1CCC(Cc2cccc(Oc3ccc(C(F)(F)F)cn3)c2)CC1 [PF-3845]
  Plate 5 (% inhibition): -5.26%
  Plate 5 (% conversion): 38.10%

## Cc1nccc2c1[nH]c1ccccc12 [Harmane]
  Plate 2 (% conversion): 35.31%
[9]
  inhibition at 20 µM: 1.92%
